Assay results taken from US20140370520A1, “METHODS AND COMPOUNDS FOR DETECTING CANCER” (University College Cardiff Constultants Limited, priority 2010, published 2014).
Several values for one entry are separate records, joined by “and”; a condition that tells them apart may be missing. Equal values may be shown once. Each block holds one compound with its values, some of them ahead of it.

How the values were obtained:
hNQO1 [1] = target: T1, hNQO1 (Homo sapiens, UniProt P15559); assay: Activity of 4-MU and Lactone with hNQO1; format: biochemical; details: 0.1 mM, NADH 0.5 mM, hNQO1, phosphate buffer pH 7, 37° C. (FIG. 6)
Description: This experiment was performed to ensure the products of activation were not further metabolised by hNQO1. HPLC was carried out on samples containing 4-MU and Lactone (0.1 mM), NADH (0.5 mM) and hNQO1 (0.2 μg) in phosphate buffer (10 mM, pH 7) using a 1-99% acetonitrile gradient and a 2 μl injection volume. Temperature was maintained at 37° C.

[2] = Control experiment: substrate alone without cells, 4-MU release; format: physicochemical
[3] = Stability of MTL8-252 in NMP and sodium phosphate buffer; format: physicochemical
Description: Stability of 0.1M MTL8-252 in NMP was assessed over a 2-hour period at 37° C. The compound appeared stable as evidenced by the fact that the uv absorbance peak area remained substantially unchanged. […] A similar experiment was carried out with DMSO stock diluted in 10 mM sodium phosphate buffer.

[4] = Stability of MTL8-252 in PBS and cell culture media with or without FBS; format: physicochemical
Description: Possible source is from FBS added in media.

hNQO1 [5] = target: T1, hNQO1; assay: Evaluation of MTL8-252 activity with human NQO1 (HPLC/UPLC, UV and fluorescence detection); format: biochemical
Description: Initial HPLC was carried out on samples containing MTL8-252 (0.1 mM), NADH (0.5 mM) and 0.5 μg/ml hNQO1 in phosphate buffer (10 mM, pH 7) using a 1-99% acetonitrile gradient and a 1 μl injection volume. Temperature was maintained at 37° C.
Reduction of the parent compound was rapid as most of it had disappeared by the second injection. […] The rate of reduction in MTL8-252 concentration was calculated at 5.9 μM/min and when the concentration of the enzyme was halved the rate reduced to 1.5 μM/min
By altering the settings of the FL Plus detector (Low PMT voltage, λex 410 nm, λem 550 nm) and calibrating for 4-MU measurements by establishing a calibration graph it can be seen that there was a linear response to 4-MU up to at least 200 μM. The maximum concentration used in incubation experiments is 100 μM, final.
Following calibration of the instrument, a repeat experiment of the activation of MTL8-252 by hNQO1 was carried out resulting in calculated rates of loss of MTL8-252 and formation of 4-MU (see FIG. 4). Rate loss of MTL8-252 was 8.41 uM/min and that corresponding to 4-MU formation determined by fluorescence was 13.51 uM/min.

[6] = Solubility of MTL8-252 in NMP and DMSO; format: physicochemical
Description: NMP Solubility: A solution of the product of Example 3D (MTL8-252) was prepared in NMP and further diluted to 0.1M in NMP. The purity of the compound was assessed via uplc using a 1-99% Acetonitrile gradient. Injection volumes of 0.5 μl, 1 μl, 2 μl, 3 μl and 5 μl were used. Purity was determined to be almost 100% based on uv data at 265 nm. The FL Plus settings were (high PMT voltage, λex 410 nm and λem 550 nm, off peak). Only a single peak with retention time of approx 4.3 min was detected. MTL8-252 was equally very soluble in DMSO.
A similar result was obtained for the diluted DMSO stock. Subsequent experiments utilised 0.1M diluted stock in 10 mM phosphate buffer, pH 7.0 and injected directly onto the uplc column

hNQO2 in PC3 cells = target: T2, hNQO2 in PC3 cells (Homo sapiens, UniProt P16083); assay: Discrimination between NQO1 and NQO2 activity in PC3 cells with co-substrate EP-0152R; format: cell-based; details: 5×10^5 PC-3 cells, 10 uM MTL8-252, 100 uM EP-0152R, 37° C., 5 min (FIG. 14)
T2 construct: Prostate carcinoma cells (as exemplified by PC3 cells) express both NQO1 and NQO2 activity; endogenous in cells; host or cells: PC3 (PC-3) human prostate cancer cell line
T2 sequence (P16083 1-231): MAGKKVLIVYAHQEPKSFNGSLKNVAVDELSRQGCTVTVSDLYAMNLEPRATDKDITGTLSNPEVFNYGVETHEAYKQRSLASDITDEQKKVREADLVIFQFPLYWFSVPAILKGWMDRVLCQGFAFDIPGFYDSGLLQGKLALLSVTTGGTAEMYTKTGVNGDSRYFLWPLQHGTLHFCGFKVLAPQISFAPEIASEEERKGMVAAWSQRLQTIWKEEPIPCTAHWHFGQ
Description: Prostate carcinoma cells (as exemplified by PC3 cells) express both NQO1 and NQO2 activity. However, the latter is only activated by the presence of a co-substrate not naturally present in the cells (EP-0152R, 1-carbamoylmethyl-3-carbamoyl-1,4-dihydronicotinamide).
To 440 ul of PBS containing 5×10^5 PC-3 cells pre-incubated at 37° C. for 5 min was added 10 uM MTL8-252 fluorogenic substrate in DMSO (final, 10 ul) and volume adjusted to 500 ul with PBS. After incubating for a further 5 min the mixture was syringe filtered as above and 2 ul of supernatant analysed by uplc as described earlier. The reaction on the same number of cells was repeated with the inclusion of 100 uM EP-0152R (50 ul) as co-substrate during incubation. The reaction mixture was filtered and analysed as above. […] In the former instance, where NQO1 and NQO2 are expressed, the supplemented assay can be used to provide a stronger assay signal and in the latter instance, where only NQO2 is expressed, the supplemented assay can be used to detect hNQO2 expressing cancers only.

hNQO1 [7] = target: T1, hNQO1; assay: Evaluation of MTL8-252 activity with human NQO1 (HPLC/UPLC, UV and fluorescence detection); format: biochemical; remark: listed apart in the source
[8] = target: T3, hDT7 NQO1-expressing cell line (Homo sapiens, UniProt P15559); assay: MTL8-252 incubation with cultured cells, uplc separation followed by FL-Plus detection; format: cell-based
T3 construct: expressed in transfected cells; host or cells: HDT7 (engineered NQO1-producing cell line; F179 is the null control)
Description: (§1) Cells in exponential growth phase were harvested and resuspended in cold PBS at 5×10^6 cells/ml. 100 ul of cell suspension (5×10^5 cells) were added to 1 ml PBS containing 10 uM MTL8-252 at 37° C. and incubated for the following time periods: 0, 5, 30 and 60 min. The reaction was stopped by spinning down cells at 13,000 rpm for 30 seconds and the cell free extract injected (2 ul) directly unto the uplc.

[9] = test system: null expressing cell line F179; assay: as above; format: cell-based; details: MTL8-252 10 μM in PBS, 5×10^5 cells/mL
Description: as §1

[10] = test system: null expressing cells (F179); assay: MTL8-252 incubation with cultured cells, luminescence spectrophotometric determination of 4-MU; format: cell-based; details: F179 2.5×10^5 cells/mL, luminescence spectrophotometer
Description: (§2) Human NQO1 expressing cells (HDT7) and null expressing cells (F179) were cultured in Eagle's MEM medium enriched with non-essential amino acids and 10% FBS. Cells were harvested in exponential growing phase and suspended in cold PBS @ 5×10^6 cells/ml. 100 ul of cell suspension (5×10^5 cells) were added to 3 ml PBS containing 10 uM MTL8-252 at 37° C. in a fluorimeter cuvette and the rate of increase in fluorescence intensity (attributed to 4-MU release), measured over 3 minutes. Control experiment contained substrate alone in PBS.
(§3) The Luminescence Spectrophotometer settings were as follows: λex=360 nm; λem=452 @ 37° C.

[11] = target: T4, Human NQO1 expressing cells (HDT7) (Homo sapiens, UniProt P15559); assay: as above; format: cell-based
T4 construct: expressed in transfected cells; host or cells: HDT7 (engineered NQO1-producing cell line; F179 is the null control)
Description: as §2, §3

[12] = repeat experiment after calibration (FIG. 4)
[13] = replots of UV data at 210 nm (FIG. 5)

T1 sequence (P15559 whole entry): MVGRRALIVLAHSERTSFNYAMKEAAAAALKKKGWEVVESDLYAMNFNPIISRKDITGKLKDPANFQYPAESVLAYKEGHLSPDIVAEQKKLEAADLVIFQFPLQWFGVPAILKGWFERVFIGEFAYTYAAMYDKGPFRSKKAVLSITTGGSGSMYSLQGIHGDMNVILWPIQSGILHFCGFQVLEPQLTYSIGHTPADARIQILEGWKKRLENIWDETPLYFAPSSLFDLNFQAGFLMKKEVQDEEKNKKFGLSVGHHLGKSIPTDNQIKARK
T4 sequence (P15559 whole entry): as above
T3 sequence (P15559 whole entry): as above

substrate of / stability in the presence of hNQO1 (hNQO1 [1]): not substrates of hNQO1 | substrate of / stability in the presence of hNQO1 (hNQO1 [1]; listed as 4 MU): stable in the presence of hNQO1
SMILES: Cc1cc(=O)oc2cc(O)ccc12 [Compound 4-MU, 4-methylumbelliferone, reference compound]

substrate of / stability in the presence of hNQO1 (hNQO1 [1]): not substrates of hNQO1 | substrate of / stability in the presence of hNQO1 (hNQO1 [1]; listed as lactone): stable in the presence of hNQO1
SMILES: Cc1c(C)c2c(c(C)c1O)C(C)(C)CC(=O)O2 [Lactone, 6-Hydroxy-4,4,5,7,8-pentamethyl-1-benzopyran-2-one]

release of 4-methylumbelliferone (4-MU) in NMP ([3]; 0.1M in NMP, 2-hour period at 37° C.): No detectable release | Stability in NMP ([3]; 0.1M in NMP, 2-hour period at 37° C., uv absorbance peak area): stable | stability in 10 mM sodium phosphate buffer, time stable ([3]; DMSO stock diluted in 10 mM sodium phosphate buffer (FIG. 2)): at least 1 hr | stability in phosphate buffer, time stable ([3]; phosphate buffer (10 mM), 37° C., monitored 75 mins (FIG. 2)): at least 1 hour | stability in PBS (FIG. 9) ([4]; PBS): very stable | stability in media without FBS (FIG. 9) ([4]; media without FBS): very stable | rate of disappearance of Compound (FIG. 4) (hNQO1 [5]; MTL8-252 100 μM, hNQO1 0.2 μg/mL, NADH 500 μM, UPLC): 13.51 µM/min | reduction in the area of the peak without enzyme (hNQO1 [5]; MTL8-252 alone or with NADH alone (FIG. 3)): No significant reduction | rate of appearance of 4 MU (FIG. 5) (hNQO1 [5]; UV at 210 nm, hNQO1 and NADH): 11.5 µM/min | rate of appearance of the lactone (FIG. 5) (hNQO1 [5]; UV at 210 nm, hNQO1 and NADH): 9.84 µM/min | rate of disappearance of MTL8-252 (FIG. 5) (hNQO1 [5]; UV at 210 nm, hNQO1 and NADH): 8.41 µM/min | rate of appearance of 4 MU (FIG. 4) (hNQO1 [5]; detected by fluorescence, MTL8-252 100 μM, hNQO1 0.2 μg/mL, NADH 500 μM): 8.41 µM/min | Rate of formation of Lactone (n = 2) (hNQO1 [5]; initial rates, MTL8-252 0.1 mM, NADH 0.5 mM, hNQO1, pH 7, 37° C.): 9.84 µM/min and 7.61 µM/min | Rate of formation of 4-MU @ 210 nm (n = 2) (hNQO1 [5]; initial rates, UV 210 nm, MTL8-252 0.1 mM, NADH 0.5 mM, hNQO1, pH 7, 37° C.): 11.48 µM/min and 6.0 µM/min | Rate of formation of 4-MU by FL (n = 2) (hNQO1 [5]; initial rates, fluorescence detection, MTL8-252 0.1 mM, NADH 0.5 mM, hNQO1, pH 7, 37° C.): 13.51 µM/min and 6.90 µM/min | 4-MU formation determined by fluorescence (hNQO1 [5]; [12]): 13.51 µM/min | Rate loss of MTL8-252 (hNQO1 [5]; [12]): 8.41 µM/min | initial rate of formation of 4-MU (hNQO1 [5]; [13]): 11.48 µM/min | initial rate of formation of lactone (hNQO1 [5]; [13]): 9.84 µM/min | substrate for hNQO1 (hNQO1 [5]; with NADH, pH 7, 37° C.): excellent substrate for hNQO1 | solubility in DMSO [6]: very soluble | increase in the formation of 4-MU by addition of hNQO2 selective co-substrate (hNQO2 in PC3 cells): 1.2 fold | rate of reduction in MTL8-252 concentration (hNQO1 [7]; 0.2 μg/ml hNQO1, NADH): 5.9 µM/min | rate of reduction in MTL8-252 concentration (hNQO1 [7]; concentration of the enzyme halved (0.10 μg/mL hNQO1)): 1.5 µM/min | increase in activity of hNQO1 expressing cells over null expressing cells (initial rate) ([8]; FIG. 8, uplc FL-Plus): about 100 fold | initial rate of release of 4 MU in hDT7 cells (FIG. 8) ([8]; MTL8-252 10 μM in PBS, 5×10^5 cells/mL, FL-Plus λex=360 nm λem=450 nm): 6.1 µM/min | increase in 4-MU formation rate, HDT7 compared with null expressing cells (F179) ([11]; FIG. 7, luminescence spectrophotometer): at least 5 fold | rate of formation of 4 MU in the hDT7 cells (FIG. 7) ([11]; hDT7 2.5×10^5 cells/mL, luminescence spectrophotometer): 0.83 nmol/min
SMILES: CC1=C(C)C(=O)C(C(C)(C)CC(=O)Oc2ccc3c(C)cc(=O)oc3c2)=C(C)C1=O [MTL8-252, 4-Methyl-2-oxo-2H-chromen-7-yl-3-methyl-3-(2,4,5-trimethyl-3,6-dioxocyclohexa-1,4-dienyl)butanoate]
rate of release of 4 MU from the control experiment (FIG. 8) ([2]; MTL8-252 10 μM in PBS alone): 0.002 µM/min | rate of formation of 4 MU in the urine alone (FIG. 7) ([2]; compound in urine alone, no cells): 0.32 nmol/min | stability in cell culture medium (FIG. 9) ([4]; PBS replaced with cell culture medium, possible source FBS): other components in the media can reduce MTL8-252 | Rate of decrease in MTL8-252 concentration (n = 4) (hNQO1 [5]; initial rates, MTL8-252 0.1 mM, NADH 0.5 mM, hNQO1, phosphate buffer 10 mM pH 7, 37° C.): 5.9 µM/min and 6.21 µM/min and 8.41 µM/min and 9.05 µM/min | initial rate of release of 4 MU in F179 cells (FIG. 8) [9]: 0.068 µM/min | rate of formation of 4 MU in the F179 cells (FIG. 7) [10]: 0.18 nmol/min
